pEC50, pKi: −log10 of the molar value. Entries after “also recorded” stand apart in the source; their conditions may differ.
Tests used:
hCA XII = hCA XII (Homo sapiens, UniProt O43570); conditions: read-out: KI hCA XII; stopped-flow CO2 hydrase assay; mean from three different assays, errors ±5–10%
[1] = test system: oxaliplatin-induced neuropathic pain (cold allodynia); assay: Cold plate test in mouse model of oxaliplatin-induced neuropathic pain; assay type: in vivo; conditions: p.o., acute; for pain-relieving effect (licking latency, Cold plate test), in words: 10–100 mg/kg; for time of peak pain-relieving effect post-administration: up to 100 mg/kg
hCA IX = biological target: T1, hCA IX (Homo sapiens, UniProt Q16790); assay type: biochemical
T1 construct: made in house

hCA IV = hCA IV (Homo sapiens, UniProt P22748); conditions: read-out: KI hCA IV; stopped-flow CO2 hydrase assay; mean from three different assays, errors ±5–10%
hCA IV, sequence (P22748 19-312): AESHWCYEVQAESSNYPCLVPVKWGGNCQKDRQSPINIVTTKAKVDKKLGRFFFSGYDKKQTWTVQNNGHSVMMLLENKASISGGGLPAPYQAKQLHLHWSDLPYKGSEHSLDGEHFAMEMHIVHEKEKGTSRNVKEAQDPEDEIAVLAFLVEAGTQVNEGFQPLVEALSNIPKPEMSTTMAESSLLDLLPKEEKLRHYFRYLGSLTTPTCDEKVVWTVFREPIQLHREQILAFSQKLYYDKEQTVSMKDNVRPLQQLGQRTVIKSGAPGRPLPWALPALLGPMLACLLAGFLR

TRPV1 receptor = biological target: T2, TRPV1 receptor (Homo sapiens, UniProt Q8NER1); assay: TRPV1 assay, Fluo-4NW fluorescence in SH-SY5Y-TRPV1 cells; assay type: cell-based; conditions: read-out: EC50 on TRPV1 receptor activity (agonism)
T2 construct: expressed in transfected cells
T2 sequence (Q8NER1 whole entry): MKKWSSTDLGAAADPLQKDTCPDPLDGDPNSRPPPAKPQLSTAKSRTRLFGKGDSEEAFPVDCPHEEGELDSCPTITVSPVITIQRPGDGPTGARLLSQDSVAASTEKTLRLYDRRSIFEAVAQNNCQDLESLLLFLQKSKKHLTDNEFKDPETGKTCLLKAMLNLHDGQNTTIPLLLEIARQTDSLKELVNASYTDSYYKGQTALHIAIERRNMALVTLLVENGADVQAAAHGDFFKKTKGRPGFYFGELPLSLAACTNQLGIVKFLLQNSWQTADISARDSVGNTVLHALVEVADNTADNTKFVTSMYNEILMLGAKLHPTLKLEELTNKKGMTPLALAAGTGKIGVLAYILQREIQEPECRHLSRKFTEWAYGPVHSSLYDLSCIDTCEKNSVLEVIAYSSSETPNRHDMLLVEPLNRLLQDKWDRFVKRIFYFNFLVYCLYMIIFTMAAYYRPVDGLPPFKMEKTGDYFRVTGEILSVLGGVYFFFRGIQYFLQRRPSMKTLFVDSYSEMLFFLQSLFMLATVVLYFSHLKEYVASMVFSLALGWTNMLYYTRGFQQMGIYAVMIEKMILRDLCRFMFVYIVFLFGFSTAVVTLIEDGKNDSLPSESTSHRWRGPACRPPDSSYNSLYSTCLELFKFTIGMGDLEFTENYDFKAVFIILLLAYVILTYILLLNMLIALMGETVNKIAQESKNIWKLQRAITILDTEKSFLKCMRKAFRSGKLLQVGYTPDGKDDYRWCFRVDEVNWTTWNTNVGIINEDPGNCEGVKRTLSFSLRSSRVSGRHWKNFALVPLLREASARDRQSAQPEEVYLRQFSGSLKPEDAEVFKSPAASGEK
Procedure: SH-SY5Y-TRPV1 cells (kindly provided by Johanna Lilja and Anna Forsby (University of Stockholm, Stockholm, Sweden))[40] were cultured in 96 wells. Upon 90% confluence had been reached, the cells were loaded with 5 μM Fluo-4NW for 1 h at 37 °C. […] Briefly, after measuring the basal fluorescence of the plate (four cycles), testing compounds were added to the plate, and the fluorescence was measured for additional 10 cycles; thereafter, 10 μM capsaicin was added with a microinjector and the fluorescence was monitored for an additional 10 cycles.

hCA I = hCA I (Homo sapiens, UniProt P00915); conditions: read-out: KI hCA I; stopped-flow CO2 hydrase assay; mean from three different assays, errors ±5–10%
hCA I, sequence (P00915 whole entry): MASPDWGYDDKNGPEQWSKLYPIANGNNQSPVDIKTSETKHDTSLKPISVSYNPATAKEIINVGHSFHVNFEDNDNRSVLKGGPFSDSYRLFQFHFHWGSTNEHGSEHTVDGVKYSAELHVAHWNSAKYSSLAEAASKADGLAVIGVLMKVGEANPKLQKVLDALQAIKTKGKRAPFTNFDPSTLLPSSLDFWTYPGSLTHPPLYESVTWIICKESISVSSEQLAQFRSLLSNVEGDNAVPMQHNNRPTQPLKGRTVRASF

hCA VII = hCA VII (Homo sapiens, UniProt P43166); conditions: read-out: KI hCA VII; stopped-flow CO2 hydrase assay; mean from three different assays, errors ±5–10%
hCA VII, sequence (P43166 whole entry): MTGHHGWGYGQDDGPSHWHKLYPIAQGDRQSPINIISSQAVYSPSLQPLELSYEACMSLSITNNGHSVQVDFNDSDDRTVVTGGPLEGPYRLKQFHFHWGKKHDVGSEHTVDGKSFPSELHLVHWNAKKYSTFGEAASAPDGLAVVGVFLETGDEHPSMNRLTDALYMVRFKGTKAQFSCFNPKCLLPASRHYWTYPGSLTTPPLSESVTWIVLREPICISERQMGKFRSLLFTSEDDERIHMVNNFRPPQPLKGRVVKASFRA

hCA II = hCA II (Homo sapiens, UniProt P00918); conditions: for pKi: read-out: KI hCA II, stopped-flow CO2 hydrase assay, mean from three different assays, errors ±5–10%

hCA XII, sequence (O43570 25-354): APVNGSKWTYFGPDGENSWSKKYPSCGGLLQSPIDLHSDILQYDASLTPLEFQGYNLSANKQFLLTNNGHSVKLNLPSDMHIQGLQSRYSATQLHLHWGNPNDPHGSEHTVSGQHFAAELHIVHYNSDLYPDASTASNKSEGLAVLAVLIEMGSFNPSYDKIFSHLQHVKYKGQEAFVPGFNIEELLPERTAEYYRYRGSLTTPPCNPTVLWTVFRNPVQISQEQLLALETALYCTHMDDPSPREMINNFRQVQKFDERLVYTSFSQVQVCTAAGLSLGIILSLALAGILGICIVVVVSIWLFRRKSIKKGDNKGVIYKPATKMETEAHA

Row | pKi (hCA XII) | pKi (hCA IX) | pKi (hCA IV) | pEC50 (TRPV1 receptor) | pKi (hCA I) | pKi (hCA VII) | fold higher efficacy in inhibiting CA II over (R)-12a (hCA II; ratio of Ki) [fold] | pKi (hCA II) | SMILES | pain-relieving effect (licking latency, Cold plate test), in words ([1]; day 15) | time of peak pain-relieving effect post-administration ([1]; Cold plate test) [min] | pain-relieving effect (licking latency, Cold plate test), in words ([1]; day 15, listed as (R)-43a) | time at which the effect was suppressed ([1]; Cold plate test) [min]
1 | 6.39 | 7.77 | 6.33 | 5.10 | 7.13 | 6.76 | 10.4 | 8.17 | NS(=O)(=O)c1ccc(NC(=S)N[C@@H]2CCN(c3cccc([N+](=O)[O-])n3)C2)cc1 [37a, (R)-4-(3-(1-(6-Nitropyridin-2-yl)pyrrolidin-3-yl)thioureido)benzenesulfonamide] | more potent and effective than (R)-12a | 30 | – | –
2 | 7.08 | 7.03 | 5.64 | < 4.00 | 7.17 | 6.79 | – | 8.12 | NS(=O)(=O)c1ccc(NC(=O)N[C@@H]2CCN(c3cccc([N+](=O)[O-])n3)C2)cc1 [43a, (R)-4-(3-(1-(6-Nitropyridin-2-yl)pyrrolidin-3-yl)ureido)benzenesulfonamide] | – | 45 | dose-dependent effectiveness; also recorded: moderate and shorter relieving outcomes | 75

From article PMC9940855, “First-in-Class Dual Hybrid Carbonic Anhydrase Inhibitors and Transient Receptor Potential Vanilloid 1 Agonists Revert Oxaliplatin-Induced Neuropathy” (Journal of Medicinal Chemistry, 2023)
